Experimental data: ChEMBL document CHEMBL1201861, “Genomics of Drug Sensitity in Cancer screening data, Wellcome Trust Sanger Institute”

Columns and labels:
COLO-741 = assay: cells; type: functional, cell-based; details: Homo sapiens
Description: SANGER: Inhibition of human COLO-741 cell growth in a cell viability assay.

CP50-MEL-B = assay: cells; type: functional, cell-based; details: Homo sapiens;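 note: growth inhibition of the human cell line, measured with a cell viability read-out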
Description: SANGER: Inhibition of human CP50-MEL-B cell growth in a cell viability assay.

DU-145 = assay: cells; type: functional, cell-based; details: Homo sapiens
Description: SANGER: Inhibition of human DU-145 cell growth in a cell viability assay.

Daudi = assay: cells; type: functional, cell-based; details: Homo sapiens;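 note: growth inhibition of Daudi cells, read out by a viability assay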
Description: SANGER: Inhibition of human Daudi cell growth in a cell viability assay.

DoTc2-4510 = assay: cells; type: functional, cell-based; details: Homo sapiens
EB-3 = assay: cells; type: functional, cell-based; details: Homo sapiens;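 note: human EB-3 cells, growth inhibition read out via a cell viability assay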
Description: SANGER: Inhibition of human EB-3 cell growth in a cell viability assay.

ESS-1 = assay: cells; type: functional, cell-based; details: Homo sapiens;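 note: growth inhibition of human ESS-1 cells, read out by a cell viability assay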
Description: SANGER: Inhibition of human ESS-1 cell growth in a cell viability assay.

GCT = assay: cells; type: functional, cell-based; details: Homo sapiens;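 note: GCT cell line proliferation inhibition, read out with a cell viability assay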
Description: SANGER: Inhibition of human GCT cell growth in a cell viability assay.

GP5d = assay: cells; type: functional, cell-based; details: Homo sapiens;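 note: growth inhibition of human GP5d cells, read out with a cell viability assay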
Description: SANGER: Inhibition of human GP5d cell growth in a cell viability assay.

HCC1937 = assay: cells; type: functional, cell-based; details: Homo sapiens;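 note: growth inhibition measured with a cell viability read-out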
Description: SANGER: Inhibition of human HCC1937 cell growth in a cell viability assay.

HCC38 = assay: cells; type: functional, cell-based; details: Homo sapiens;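 note: cell viability assay on the human HCC38 cell line, with IC50 marking the concentration that inhibits cell growth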
Description: SANGER: Inhibition of human HCC38 cell growth in a cell viability assay.

HCT-116 = assay: cells; type: functional, cell-based; details: Homo sapiens
Description: SANGER: Inhibition of human HCT-116 cell growth in a cell viability assay.

HOP-92 = assay: cells; type: functional, cell-based; details: Homo sapiens;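 note: cell viability readout, with IC50 reflecting inhibition of HOP-92 cell growth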
Description: SANGER: Inhibition of human HOP-92 cell growth in a cell viability assay.

HOS = assay: cells; type: functional, cell-based; details: Homo sapiens;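 note: growth inhibition of human HOS cells, read out with a cell viability assay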
Description: SANGER: Inhibition of human HOS cell growth in a cell viability assay.

HT-1080 = assay: cells; type: functional, cell-based; details: Homo sapiens
Description: SANGER: Inhibition of human HT-1080 cell growth in a cell viability assay.

HT55 = assay: cells; type: functional, cell-based; details: Homo sapiens;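 note: cell viability readout measuring growth inhibition of human HT55 cells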
Description: SANGER: Inhibition of human HT55 cell growth in a cell viability assay.

HuCCT-1 = assay: cells; type: functional, cell-based, HuCCT1; details: Homo sapiens;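 note: growth inhibition of HuCCT-1 cells, read out by a cell viability assay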
Description: SANGER: Inhibition of human HuCCT1 cell growth in a cell viability assay.

HuP-T3 = assay: cells; type: functional, cell-based; details: Homo sapiens;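 note: HuP-T3 cell growth inhibition, read out with a cell viability assay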
Description: SANGER: Inhibition of human HuP-T3 cell growth in a cell viability assay.

IGR-1 = assay: cells; type: functional, cell-based; details: Homo sapiens;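 note: growth inhibition of human IGR-1 cells, read out with a cell viability assay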
Description: SANGER: Inhibition of human IGR-1 cell growth in a cell viability assay.

KYSE-510 = assay: cells; type: functional, cell-based; details: Homo sapiens;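 note: cell viability readout used to measure how strongly growth of the cell line is suppressed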
Description: SANGER: Inhibition of human KYSE-510 cell growth in a cell viability assay.

LC-1F = assay: cells; type: functional, cell-based; details: Homo sapiens;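 note: growth inhibition of human LC-1F cells, read out with a cell viability assay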
Description: SANGER: Inhibition of human LC-1F cell growth in a cell viability assay.

MCF7 = assay: cells; type: functional, cell-based; details: Homo sapiens;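 note: growth inhibition of human MCF7 cells, read out with a cell viability assay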
Description: SANGER: Inhibition of human MCF7 cell growth in a cell viability assay.

MFE-280 = assay: cells; type: functional, cell-based; details: Homo sapiens;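 note: growth inhibition of MFE-280 cells, determined with a cell viability readout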
Description: SANGER: Inhibition of human MFE-280 cell growth in a cell viability assay.

MKN-1 = assay: cells; type: functional, cell-based; details: Homo sapiens;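 note: growth inhibition of human MKN1 cells, read out by a cell viability measurement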
Description: SANGER: Inhibition of human MKN1 cell growth in a cell viability assay.

MKN-7 = assay: cells; type: functional, cell-based; details: Homo sapiens;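 note: growth inhibition of MKN-7 cells, read out with a cell viability assay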
Description: SANGER: Inhibition of human MKN7 cell growth in a cell viability assay.

MRK-nu-1 = assay: cells; type: functional, cell-based; details: Homo sapiens;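 note: cell viability assay measuring growth suppression of human MRK-nu-1 cells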
Description: SANGER: Inhibition of human MRK-nu-1 cell growth in a cell viability assay.

MeWo = assay: cells; type: functional, cell-based; details: Homo sapiens;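 note: growth inhibition of MeWo cells, determined by a cell viability readout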
Description: SANGER: Inhibition of human Mewo cell growth in a cell viability assay.

NALM-6 = assay: cells; type: functional, cell-based; details: Homo sapiens;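 note: growth inhibition of NALM-6 cells, read out with a cell viability assay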
Description: SANGER: Inhibition of human NALM-6 cell growth in a cell viability assay.

NCI-H1437 = assay: cells; type: functional, cell-based; details: Homo sapiens;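 note: growth inhibition of human NCI-H1437 cells, read out by a cell viability assay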
Description: SANGER: Inhibition of human NCI-H1437 cell growth in a cell viability assay.

NCI-H1573 = assay: cells; type: functional, cell-based; details: Homo sapiens;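 note: growth inhibition of NCI-H1573 cells, read out with a cell viability assay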
Description: SANGER: Inhibition of human NCI-H1573 cell growth in a cell viability assay.

NCI-H1755 = assay: cells; type: functional, cell-based; details: Homo sapiens;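 note: cell viability readout used to measure growth inhibition of NCI-H1755 cells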
Description: SANGER: Inhibition of human NCI-H1755 cell growth in a cell viability assay.

NCI-H2228 = assay: cells; type: functional, cell-based; details: Homo sapiens;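 note: growth inhibition of human NCI-H2228 cells, read out by a cell viability assay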
Description: SANGER: Inhibition of human NCI-H2228 cell growth in a cell viability assay.

NCI-H2405 = assay: cells; type: functional, cell-based; details: Homo sapiens;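 note: growth inhibition of the human cell line, read out with a cell viability assay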
Description: SANGER: Inhibition of human NCI-H2405 cell growth in a cell viability assay.

NCI-H28 = assay: cells; type: functional, cell-based; details: Homo sapiens;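 note: growth inhibition of human NCI-H28 cells, read out as cell viability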
Description: SANGER: Inhibition of human NCI-H28 cell growth in a cell viability assay.

NCI-H460 = assay: cells; type: functional, cell-based; details: Homo sapiens;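 note: cell viability assay scoring growth inhibition of human NCI-H460 cells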
Description: SANGER: Inhibition of human NCI-H460 cell growth in a cell viability assay.

NCI-H596 = assay: cells; type: functional, cell-based; details: Homo sapiens;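 note: growth inhibition of NCI-H596 cells, read out with a cell viability assay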
Description: SANGER: Inhibition of human NCI-H596 cell growth in a cell viability assay.

NCI-H650 = assay: cells; type: functional, cell-based; details: Homo sapiens;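 note: growth inhibition of NCI-H650 cells, read out by a viability assay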
Description: SANGER: Inhibition of human NCI-H650 cell growth in a cell viability assay.

NCI-H661 = assay: cells; type: functional, cell-based; details: Homo sapiens;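 note: cell viability assay read-out, IC50 being the concentration that inhibits growth of the cells by half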
Description: SANGER: Inhibition of human NCI-H661 cell growth in a cell viability assay.

OAW-28 = assay: cells; type: functional, cell-based; details: Homo sapiens;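 note: growth inhibition of OAW-28 cells, read out with a cell viability assay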
Description: SANGER: Inhibition of human OAW-28 cell growth in a cell viability assay.

RVH-421 = assay: cells; type: functional, cell-based; details: Homo sapiens
Description: SANGER: Inhibition of human RVH-421 cell growth in a cell viability assay.

SF-295 = assay: cells; type: functional, cell-based; details: Homo sapiens;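 note: growth inhibition of SF-295 cells, read out with a cell viability assay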
Description: SANGER: Inhibition of human SF295 cell growth in a cell viability assay.

SK-LU-1 = assay: cells; type: functional, cell-based; details: Homo sapiens;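 note: cell viability assay measuring growth inhibition of human SK-LU-1 cells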
Description: SANGER: Inhibition of human SK-LU-1 cell growth in a cell viability assay.

SK-MEL-28 = assay: cells; type: functional, cell-based; details: Homo sapiens;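 note: growth inhibition of human SK-MEL-28 cells, read out with a cell viability assay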
Description: SANGER: Inhibition of human SK-MEL-28 cell growth in a cell viability assay.

SU-DHL-1 = assay: SANGER: Inhibition of human SU-DHL-1 cell growth in a cell viability assay.; type: functional, cell-based
SW1417 = assay: cells; type: functional, cell-based; details: Homo sapiens;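 note: growth inhibition of human SW1417 cells, read out with a cell viability assay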
Description: SANGER: Inhibition of human SW1417 cell growth in a cell viability assay.

SW1573 = assay: cells; type: functional, cell-based; details: Homo sapiens;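 note: growth inhibition of SW1573 cells, read out with a cell viability assay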
Description: SANGER: Inhibition of human SW1573 cell growth in a cell viability assay.

SW1990 = assay: cells; type: functional, cell-based; details: Homo sapiens
Description: SANGER: Inhibition of human SW1990 cell growth in a cell viability assay.

SAOS-2 = assay: cells; type: functional, cell-based; details: Homo sapiens;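 note: growth inhibition of human Saos-2 cells determined by a cell viability assay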
Description: SANGER: Inhibition of human Saos-2 cell growth in a cell viability assay.

T-24 = assay: cells; type: functional, cell-based; details: Homo sapiens;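 note: growth inhibition of T-24 cells, read out with a cell viability assay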
Description: SANGER: Inhibition of human T-24 cell growth in a cell viability assay.

TALL-1 = assay: cells; type: functional, cell-based; details: Homo sapiens;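 note: growth inhibition of cultured human TALL-1 cells, read out by a cell viability assay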
Description: SANGER: Inhibition of human TALL-1 cell growth in a cell viability assay.

647-V = assay: cells; type: functional, cell-based; details: Homo sapiens;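 note: growth inhibition of 647-V cells, read out with a cell viability assay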
Description: SANGER: Inhibition of human 647-V cell growth in a cell viability assay.

8305C = assay: cells; type: functional, cell-based; details: Homo sapiens
Description: SANGER: Inhibition of human 8305C cell growth in a cell viability assay.

A204 = assay: cells; type: functional, cell-based; details: Homo sapiens;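 note: growth inhibition of human A204 cells, read out with a cell viability assay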
Description: SANGER: Inhibition of human A204 cell growth in a cell viability assay.

ACHN = assay: cells; type: functional, cell-based; details: Homo sapiens;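 note: cell viability read-out used to gauge how strongly growth of human ACHN cells is suppressed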
Description: SANGER: Inhibition of human ACHN cell growth in a cell viability assay.

BC1 cell line = assay: SANGER: Inhibition of human BC-1 cell growth in a cell viability assay.; type: functional, cell-based
BC-3 = assay: cells; type: functional, cell-based; details: Homo sapiens;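 note: cell viability assay measuring growth inhibition of human BC-3 cells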
Description: SANGER: Inhibition of human BC-3 cell growth in a cell viability assay.

BHY = assay: cells; type: functional, cell-based; details: Homo sapiens;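 note: cell growth inhibition read out by a viability assay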
Description: SANGER: Inhibition of human BHY cell growth in a cell viability assay.

BPH-1 = assay: cells; type: functional, cell-based; details: Homo sapiens;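 note: cell viability assay measuring growth inhibition of human BPH-1 cells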
Description: SANGER: Inhibition of human BPH-1 cell growth in a cell viability assay.

TUR = assay: cells; type: functional, cell-based; details: Homo sapiens;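 note: growth inhibition of human TUR cells, read out with a cell viability assay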
Description: SANGER: Inhibition of human TUR cell growth in a cell viability assay.

UACC-62 = assay: cells; type: functional, cell-based; details: Homo sapiens
Description: SANGER: Inhibition of human UACC-62 cell growth in a cell viability assay.

UACC-893 = assay: cells; type: functional, cell-based; details: Homo sapiens
Description: SANGER: Inhibition of human UACC-893 cell growth in a cell viability assay.

VM-CUB-1 = assay: cells; type: functional, cell-based; details: Homo sapiens
Description: SANGER: Inhibition of human VM-CUB-1 cell growth in a cell viability assay.

CHP-126 = assay: cells; type: functional, cell-based; details: Homo sapiens
Description: SANGER: Inhibition of human CHP-126 cell growth in a cell viability assay.

COLO-678 = assay: cells; type: functional, cell-based; details: Homo sapiens
Description: SANGER: Inhibition of human COLO-678 cell growth in a cell viability assay.

CO[C@@]12[C@H](COC(N)=O)C3=C(C(=O)C(C)=C(N)C3=O)N1C[C@@H]1N[C@@H]12 [MITOMYCIN]
IC50 (COLO-741): 2200 nM
IC50 (CP50-MEL-B): 780 nM
IC50 (DU-145): < 62.5 nM
IC50 (Daudi): 392 nM
IC50 (DoTc2-4510): 180 nM
IC50 (EB-3): 3200 nM
IC50 (ESS-1): < 62.5 nM
IC50 (GCT): 4600 nM
IC50 (GP5d): 84 nM
IC50 (HCC1937): 594 nM
IC50 (HCC38): 604 nM
IC50 (HCT-116): 1020 nM
IC50 (HOP-92): 1940 nM
IC50 (HOS): 107 nM
IC50 (HT-1080): 354 nM
IC50 (HT55): 1950 nM
IC50 (HuCCT-1): 904 nM
IC50 (HuP-T3): 711 nM
IC50 (IGR-1): 322 nM
IC50 (KYSE-510): < 62.5 nM
IC50 (LC-1F): 862 nM
IC50 (MCF7): < 62.5 nM
IC50 (MFE-280): 8350 nM
IC50 (MKN-1): 541 nM
IC50 (MKN-7): > 16000 nM
IC50 (MRK-nu-1): 110 nM
IC50 (MeWo): 9550 nM
IC50 (NALM-6): < 62.5 nM
IC50 (NCI-H1437): 126 nM
IC50 (NCI-H1573): 1460 nM
IC50 (NCI-H1755): 5440 nM
IC50 (NCI-H2228): < 62.5 nM
IC50 (NCI-H2405): 294 nM
IC50 (NCI-H28): 2440 nM
IC50 (NCI-H460): < 62.5 nM
IC50 (NCI-H596): 1540 nM
IC50 (NCI-H650): 344 nM
IC50 (NCI-H661): 542 nM
IC50 (OAW-28): 441 nM
IC50 (RVH-421): 629 nM
IC50 (SF-295): < 62.5 nM
IC50 (SK-LU-1): < 62.5 nM
IC50 (SK-MEL-28): > 16000 nM
IC50 (SU-DHL-1): < 62.5 nM
IC50 (SW1417): 1010 nM
IC50 (SW1573): 145 nM
IC50 (SW1990): 637 nM
IC50 (SAOS-2): 1410 nM
IC50 (T-24): 246 nM
IC50 (TALL-1): 2400 nM
IC50 (647-V): 87.4 nM
IC50 (8305C): 156 nM
IC50 (A204): 84.2 nM
IC50 (ACHN): 72.1 nM
IC50 (BC1 cell line): 88.8 nM
IC50 (BC-3): 212 nM
IC50 (BHY): 75.3 nM
IC50 (BPH-1): 29.9 nM
IC50 (TUR): 190 nM
IC50 (UACC-62): 2160 nM
IC50 (UACC-893): 418 nM
IC50 (VM-CUB-1): 261 nM
IC50 (CHP-126): 72.4 nM
IC50 (COLO-678): 2890 nM

C/C=C(/C)C(=O)O[C@H]1C(C)=C2[C@H]([C@@H]1OC(=O)CCCCCCC)[C@@](C)(OC(C)=O)C[C@H](OC(=O)CCC)[C@@]1(O)[C@H]2OC(=O)[C@@]1(C)O [THAPSIGARGIN]
IC50 (COLO-741): 10.9 nM
IC50 (CP50-MEL-B): 11.1 nM
IC50 (DU-145): 8.63 nM
IC50 (Daudi): 3.63 nM
IC50 (DoTc2-4510): 12.4 nM
IC50 (EB-3): 19 nM
IC50 (ESS-1): 7.58 nM
IC50 (GCT): 5.3 nM
IC50 (GP5d): 41.7 nM
IC50 (HCC1937): 0.927 nM
IC50 (HCC38): 1.37 nM
IC50 (HCT-116): 0.943 nM
IC50 (HOP-92): 5.26 nM
IC50 (HOS): 1.96 nM
IC50 (HT-1080): < 2 nM
IC50 (HT55): > 512 nM
IC50 (HuCCT-1): 4.33 nM
IC50 (HuP-T3): 18.1 nM
IC50 (IGR-1): 10.5 nM
IC50 (KYSE-510): < 2 nM
IC50 (LC-1F): 4.19 nM
IC50 (MCF7): < 2 nM
IC50 (MFE-280): 36.6 nM
IC50 (MKN-1): 47.4 nM
IC50 (MKN-7): > 512 nM
IC50 (MRK-nu-1): 23.2 nM
IC50 (MeWo): > 512 nM
IC50 (NALM-6): < 2 nM
IC50 (NCI-H1437): 2.47 nM
IC50 (NCI-H1573): 1.62 nM
IC50 (NCI-H1755): 310 nM
IC50 (NCI-H2228): 8 nM
IC50 (NCI-H2405): 1.14 nM
IC50 (NCI-H28): > 512 nM
IC50 (NCI-H460): 8.37 nM
IC50 (NCI-H596): 38.9 nM
IC50 (NCI-H650): 296 nM
IC50 (NCI-H661): 19.9 nM
IC50 (OAW-28): 50.3 nM
IC50 (RVH-421): 3.67 nM
IC50 (SF-295): < 2 nM
IC50 (SK-LU-1): 1.16 nM
IC50 (SK-MEL-28): > 512 nM
IC50 (SU-DHL-1): > 512 nM
IC50 (SW1417): 335 nM
IC50 (SW1573): 31.1 nM
IC50 (SW1990): < 2 nM
IC50 (SAOS-2): 14.7 nM
IC50 (T-24): 12.3 nM
IC50 (TALL-1): 21.7 nM
IC50 (647-V): 13.7 nM
IC50 (8305C): 2.7 nM
IC50 (A204): 17.3 nM
IC50 (ACHN): 28.6 nM
IC50 (BC1 cell line): 23.2 nM
IC50 (BC-3): 4.51 nM
IC50 (BHY): 2.26 nM
IC50 (BPH-1): 0.6 nM
IC50 (TUR): 12.5 nM
IC50 (UACC-62): 66.4 nM
IC50 (UACC-893): 58.7 nM
IC50 (VM-CUB-1): 22 nM
IC50 (CHP-126): 29.8 nM
IC50 (COLO-678): > 512 nM
